# Active and inactive are the calls of the source. The calls are words filed in the database; no cut-off is given here.
# Key:
# [1] = test system: Olaparib-resistant HCT116; assay: Antitumor activity against human Olaparib-resistant HCT116 cells xenografted in female Balb/c nude mouse assessed as reduction in tumor weight at 25 mg/kg/day, po qd administered for 21 days; type: functional, organism-based; conditions: time 21.0 day
# MDA-MB-231 [2] = assay: Antitumor activity against human MDA-MB-231 cells xenografted in female Balb/c nude mouse assessed as tumor growth inhibition at 25 mg/kg/day, po qd administered for 28 days relative to control; type: functional; conditions: MDA-MB-231, 672 h, time 28 day, read-out: TGI
# MDA-MB-468 = assay: Antiproliferative activity against human MDA-MB-468 cells harboring wild type BRCA1/2, HR-proficient and non-c-Met amplification assessed as inhibition of cell growth incubated for 7 days by MTT assay; type: functional, cell-based; conditions: MDA-MB-468, 168 h
# MDA-MB-231 [3] = assay: Antitumor activity against human MDA-MB-231 cells xenografted in female Balb/c nude mouse assessed as tumor growth inhibition at 25 mg/kg/day, po qd administered for 28 days in presence of olaparib 50 mg/kg, ip qd relative to control; type: functional; conditions: MDA-MB-231, 672 h, time 28 day, read-out: TGI
# MDA-MB-231 [4] = assay: Induction of apoptosis in human MDA-MB-231 cells assessed as dead cells at 0.5 uM incubated for 4 days by Annexin V-FITC/PI staining based flow cytometry analysis (reference value: 0.72%); type: functional; conditions: time 4 day
# MDA-MB-231 [5] = assay: Induction of apoptosis in human MDA-MB-231 cells assessed as late apoptotic cells at 0.5 uM incubated for 4 days in presence of olaparib at 1 uM by Annexin V-FITC/PI staining based flow cytometry analysis (reference value: 0.81%); type: functional; conditions: time 4 day
# MDA-MB-231 [6] = assay: Induction of apoptosis in human MDA-MB-231 cells assessed as live cells at 0.5 uM incubated for 4 days in presence of olaparib at 1 uM by Annexin V-FITC/PI staining based flow cytometry analysis (reference value: 94.6%); type: functional; conditions: time 4 day
# MDA-MB-231 [7] = assay: Induction of apoptosis in human MDA-MB-231 cells assessed as early apoptotic cells at 0.5 uM incubated for 4 days by Annexin V-FITC/PI staining based flow cytometry analysis (reference value: 3.88%); type: functional; conditions: time 4 day
# MDA-MB-231 [8] = assay: Antiproliferative activity against human MDA-MB-231 cells harboring wild type BRCA and c-Met amplification assessed as inhibition of cell growth incubated for 7 days by MTT assay; type: functional, cell-based; conditions: MDA-MB-231, 168 h
# MDA-MB-231 [9] = assay: Induction of apoptosis in human MDA-MB-231 cells assessed as dead cells at 0.5 uM incubated for 4 days in presence of olaparib at 1 uM by Annexin V-FITC/PI staining based flow cytometry analysis (reference value: 0.72%); type: functional; conditions: time 4 day
# MDA-MB-231 [10] = assay: Antitumor activity against human MDA-MB-231 cells xenografted in female Balb/c nude mouse assessed as reduction in tumor weight at 25 mg/kg/day, po qd administered for 28 days in presence of olaparib 50 mg/kg, ip qd; type: functional, organism-based; conditions: time 28.0 day
# MDA-MB-231 [11] = assay: Antitumor activity against human MDA-MB-231 cells xenografted in female Balb/c nude mouse assessed as reduction in tumor weight at 25 mg/kg/day, po qd administered for 28 days; type: functional, organism-based; conditions: time 28.0 day
# [12] = Antiproliferative activity against human Olaparib-resistant HCC1937 cells harboring BRCA1 mutant and PARP1 overexpression assessed as inhibition of cell growth incubated for 7 days by MTT assay; type: functional, cell-based; conditions: Olaparib-resistant HCC1937, 168 h
# MDA-MB-231 [13] = assay: Induction of apoptosis in human MDA-MB-231 cells assessed as late apoptotic cells at 0.5 uM incubated for 4 days by Annexin V-FITC/PI staining based flow cytometry analysis (reference value: 0.81%); type: functional; conditions: time 4 day
# MDA-MB-231 [14] = assay: Induction of apoptosis in human MDA-MB-231 cells assessed as live cells at 0.5 uM incubated for 4 days by Annexin V-FITC/PI staining based flow cytometry analysis (reference value: 94.6%); type: functional; conditions: time 4 day
# [15] = test system: Olaparib-resistant HCT116; assay: Antiproliferative activity against human Olaparib-resistant HCT116 cells harboring BRCA2 mutant assessed as inhibition of cell growth incubated for 7 days by MTT assay; type: functional, cell-based; conditions: Olaparib-resistant HCT116, 168 h
# MDA-MB-231 [16] = assay: Induction of apoptosis in human MDA-MB-231 cells assessed as early apoptotic cells at 0.5 uM incubated for 4 days in presence of olaparib at 1 uM by Annexin V-FITC/PI staining based flow cytometry analysis (reference value: 3.88%); type: functional; conditions: time 4 day
# [17] = test system: Olaparib-resistant HCT116; assay: Antitumor activity against human Olaparib-resistant HCT116 cells xenografted in female Balb/c nude mouse assessed as tumor growth inhibition at 25 mg/kg/day, po qd administered for 21 days in presence of olaparib at 50 mg/kg/day, ip qd relative to control; type: functional; conditions: Olaparib-resistant HCT116, 504 h, time 21 day, read-out: TGI
# [18] = test system: Olaparib-resistant HCT116; assay: Antitumor activity against human Olaparib-resistant HCT116 cells xenografted in female Balb/c nude mouse assessed as tumor growth inhibition at 25 mg/kg/day, po qd administered for 21 days relative to control; type: functional; conditions: Olaparib-resistant HCT116, 504 h, time 21 day, read-out: TGI
smiles,measurement,setting,value
C[C@@H](Oc1cc(-c2cnn(C3CCNCC3)c2)cnc1N)c1c(Cl)ccc(F)c1Cl [CRIZOTINIB],Activity,[1],Active
same,inhibition in vivo at 25 mg/kg/day,MDA-MB-231 [2],6%
same,IC50,MDA-MB-468,4.54 µM
same,inhibition in vivo at 25 mg/kg/day,MDA-MB-231 [3],69%
same,Activity,MDA-MB-231 [4],2.23%
same,Activity,MDA-MB-231 [5],6.57%
same,Activity,MDA-MB-231 [6],76.9%
same,Activity,MDA-MB-231 [7],4.75%
same,IC50,MDA-MB-231 [8],8.37 µM
same,Activity,MDA-MB-231 [9],9.45%
same,Activity,MDA-MB-231 [10],Active
same,Activity,MDA-MB-231 [11],Active
same,IC50,[12],5.23 µM
same,Activity,MDA-MB-231 [13],2.08%
same,Activity,MDA-MB-231 [14],90.9%
same,IC50,[15],3.15 µM
same,Activity,MDA-MB-231 [16],7.12%
same,inhibition in vivo at 25 mg/kg/day,[17],48%
same,inhibition in vivo at 25 mg/kg/day,[18],21%
